pIC50: −log10 of the molar value.
Key:
[1] = test system: KARPAS-299; assay: Antitumor activity against ALK positive human KARPAS-299 cells xenografted in SCID beige mouse assessed as tumor growth inhibition at 25 mg/kg, po administered once daily for 14 days relative to control; assay type: functional; details: time 14 day
[2] = test system: Epidermal growth factor receptor (Homo sapiens), P00533 [UNDEFINED MUTATION]; details: BaF3, time 72.0 hrs
[3] = target: Hepatocyte growth factor receptor (Homo sapiens, UniProt P08581); assay: Inhibition of human MET at 1 uM using poly (Glu, Tyr)4:1 as substrate in presence of [gamma33P]-ATP by HotSpot assay relative to control
[4] = organism: Homo sapiens; assay: Inhibition of human BRAF V600E at 1 uM using MEK1 as substrate in presence of [gamma33P]-ATP by HotSpot assay relative to control
[5] = target: Testis-specific serine/threonine-protein kinase 1 (Homo sapiens, UniProt Q9BXA7); assay: Inhibition of human TSSK1 using KKKVSRSGLYRSPSMPENLNRPR as substrate in presence of [gamma33P]-ATP by HotSpot assay
[6] = target: Mitogen-activated protein kinase kinase kinase kinase 2 (Homo sapiens) (UniProt Q12851); assay: Inhibition of human GCK at 1 uM using MBP as substrate in presence of [gamma33P]-ATP by HotSpot assay relative to control
[7] = target: SRSF protein kinase 1 (Homo sapiens) (UniProt Q96SB4); assay: Inhibition of human SRPK1 at 1 uM using GRSRSRSRSR as substrate in presence of [gamma33P]-ATP by HotSpot assay relative to control
[8] = target: Homeodomain-interacting protein kinase 2 (Homo sapiens) (UniProt Q9H2X6); assay: Inhibition of human HIPK2 at 1 uM using MBP as substrate in presence of [gamma33P]-ATP by HotSpot assay relative to control
[9] = test system: EML4-ALK (Homo sapiens), Q9UM73+Q9HC35 [S1206Y]; details: BaF3, time 3-5 weeks
[10] = target: Dual specificity tyrosine-phosphorylation-regulated kinase 1B (Homo sapiens) (UniProt Q9Y463); assay: Inhibition of human DYRK1B at 1 uM using RRRFRPASPLRGPPK as substrate in presence of [gamma33P]-ATP by HotSpot assay relative to control
[11] = target: Serine/threonine-protein kinase pim-2 (Homo sapiens) (UniProt Q9P1W9); assay: Inhibition of human PIM2 at 1 uM using RSRHSSYPAGT as substrate in presence of [gamma33P]-ATP by HotSpot assay relative to control
[12] = target: RAC-alpha serine/threonine-protein kinase (Homo sapiens) (UniProt P31749); assay: Inhibition of human AKT1 at 1 uM using KGSGSGRPRTSSFAEG as substrate in presence of [gamma33P]-ATP by HotSpot assay relative to control
[13] = target: Dual specificity mitogen-activated protein kinase kinase 1 (Homo sapiens) (UniProt Q02750); assay: Inhibition of human MAP2K1 at 1 uM using ERK2 as substrate in presence of [gamma33P]-ATP by HotSpot assay relative to control
[14] = target: Cyclin-dependent kinase 5/CDK5 activator 1 (Homo sapiens) (UniProt Q00535+Q15078); assay: Inhibition of human CDK5/p35 at 1 uM using RB protein as substrate in presence of [gamma33P]-ATP by HotSpot assay relative to control; assay type: protein-complex assay
[15] = target: CDK7/Cyclin H/MNAT1 (Homo sapiens) (UniProt P51946+P50613+P51948); assay: Inhibition of human CDK7/CyclinH/MAT1 at 1 uM using MBP as substrate in presence of [gamma33P]-ATP by HotSpot assay relative to control; assay type: protein-complex assay
[16] = target: Mitogen-activated protein kinase kinase kinase 14 (Homo sapiens) (UniProt Q99558); assay: Inhibition of human MAP3K14 at 1 uM using MBP as substrate in presence of [gamma33P]-ATP by HotSpot assay relative to control
[17] = target: Mitogen-activated protein kinase kinase kinase 8 (Homo sapiens) (UniProt P41279); assay: Inhibition of human MAP3K8 at 1 uM using MEK1 as substrate in presence of [gamma33P]-ATP by HotSpot assay relative to control
[18] = target: MAP kinase-interacting serine/threonine-protein kinase 2 (Homo sapiens) (UniProt Q9HBH9); assay: Inhibition of human MNK2 at 1 uM using MBP as substrate in presence of [gamma33P]-ATP by HotSpot assay relative to control
[19] = target: Interleukin-1 receptor-associated kinase 4 (Homo sapiens) (UniProt Q9NWZ3); assay: Inhibition of human IRAK4 at 1 uM using modified-CGRTGRRNSI-NH2 as substrate in presence of [gamma33P]-ATP by HotSpot assay relative to control
[20] = target: Mitogen-activated protein kinase kinase kinase 20 (Homo sapiens) (UniProt Q9NYL2); assay: Inhibition of human ZAK at 1 uM using MBP as substrate in presence of [gamma33P]-ATP by HotSpot assay relative to control
[21] = target: SRSF protein kinase 2 (Homo sapiens) (UniProt P78362); assay: Inhibition of human SRPK2 at 1 uM using GRSRSRSRSR as substrate in presence of [gamma33P]-ATP by HotSpot assay relative to control
[22] = target: Homeodomain-interacting protein kinase 1 (Homo sapiens) (UniProt Q86Z02); assay: Inhibition of human HIPK1 at 1 uM using MBP as substrate in presence of [gamma33P]-ATP by HotSpot assay relative to control
[23] = target: Serine/threonine-protein kinase PAK 6 (Homo sapiens) (UniProt Q9NQU5); assay: Inhibition of human PAK6 at 1 uM using RRRLSFAEPG as substrate in presence of [gamma33P]-ATP by HotSpot assay relative to control
[24] = target: Protein kinase C epsilon type (Homo sapiens) (UniProt Q02156); assay: Inhibition of human PKCepsilon at 1 uM using ERMRPRKRQGSVRRRV as substrate in presence of [gamma33P]-ATP by HotSpot assay relative to control
[25] = target: Discoidin domain-containing receptor 2 (Homo sapiens) (UniProt Q16832); assay: Inhibition of human DDR2 at 1 uM using KKSRGDYMTMQIG as substrate in presence of [gamma33P]-ATP by HotSpot assay relative to control
[26] = target: Receptor tyrosine-protein kinase erbB-2 (Homo sapiens, UniProt P04626); assay: Inhibition of human ERBB2 at 1 uM using poly (Glu, Tyr)4:1 as substrate in presence of [gamma33P]-ATP by HotSpot assay relative to control
[27] = target: Mitogen-activated protein kinase kinase kinase kinase 4 (Homo sapiens) (UniProt O95819); assay: Inhibition of human MAP4K4 at 1 uM using MBP as substrate in presence of [gamma33P]-ATP by HotSpot assay relative to control

Protein kinase C epsilon type (Homo sapiens), sequence (Q02156 whole entry, the tested form may be a part): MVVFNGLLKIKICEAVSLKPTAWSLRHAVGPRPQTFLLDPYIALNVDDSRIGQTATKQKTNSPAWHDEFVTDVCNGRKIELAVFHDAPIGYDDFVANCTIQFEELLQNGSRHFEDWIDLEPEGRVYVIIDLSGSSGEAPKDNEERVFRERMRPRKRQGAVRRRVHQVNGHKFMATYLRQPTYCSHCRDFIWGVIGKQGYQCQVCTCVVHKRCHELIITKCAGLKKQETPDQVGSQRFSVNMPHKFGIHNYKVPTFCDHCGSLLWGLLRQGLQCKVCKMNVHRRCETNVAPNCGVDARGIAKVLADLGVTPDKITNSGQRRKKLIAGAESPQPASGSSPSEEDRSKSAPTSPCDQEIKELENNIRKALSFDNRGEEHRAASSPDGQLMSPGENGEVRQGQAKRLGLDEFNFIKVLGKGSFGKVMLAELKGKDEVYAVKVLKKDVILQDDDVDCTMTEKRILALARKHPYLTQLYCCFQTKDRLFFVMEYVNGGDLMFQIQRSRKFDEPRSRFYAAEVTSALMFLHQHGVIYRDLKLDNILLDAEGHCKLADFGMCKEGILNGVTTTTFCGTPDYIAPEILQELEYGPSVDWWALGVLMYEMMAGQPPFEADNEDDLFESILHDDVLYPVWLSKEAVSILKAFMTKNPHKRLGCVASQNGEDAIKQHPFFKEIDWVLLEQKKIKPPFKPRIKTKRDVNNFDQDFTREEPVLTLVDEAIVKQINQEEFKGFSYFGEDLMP
Epidermal growth factor receptor (Homo sapiens), P00533 [UNDEFINED MUTATION], sequence (P00533 whole entry, looked up, change not shown): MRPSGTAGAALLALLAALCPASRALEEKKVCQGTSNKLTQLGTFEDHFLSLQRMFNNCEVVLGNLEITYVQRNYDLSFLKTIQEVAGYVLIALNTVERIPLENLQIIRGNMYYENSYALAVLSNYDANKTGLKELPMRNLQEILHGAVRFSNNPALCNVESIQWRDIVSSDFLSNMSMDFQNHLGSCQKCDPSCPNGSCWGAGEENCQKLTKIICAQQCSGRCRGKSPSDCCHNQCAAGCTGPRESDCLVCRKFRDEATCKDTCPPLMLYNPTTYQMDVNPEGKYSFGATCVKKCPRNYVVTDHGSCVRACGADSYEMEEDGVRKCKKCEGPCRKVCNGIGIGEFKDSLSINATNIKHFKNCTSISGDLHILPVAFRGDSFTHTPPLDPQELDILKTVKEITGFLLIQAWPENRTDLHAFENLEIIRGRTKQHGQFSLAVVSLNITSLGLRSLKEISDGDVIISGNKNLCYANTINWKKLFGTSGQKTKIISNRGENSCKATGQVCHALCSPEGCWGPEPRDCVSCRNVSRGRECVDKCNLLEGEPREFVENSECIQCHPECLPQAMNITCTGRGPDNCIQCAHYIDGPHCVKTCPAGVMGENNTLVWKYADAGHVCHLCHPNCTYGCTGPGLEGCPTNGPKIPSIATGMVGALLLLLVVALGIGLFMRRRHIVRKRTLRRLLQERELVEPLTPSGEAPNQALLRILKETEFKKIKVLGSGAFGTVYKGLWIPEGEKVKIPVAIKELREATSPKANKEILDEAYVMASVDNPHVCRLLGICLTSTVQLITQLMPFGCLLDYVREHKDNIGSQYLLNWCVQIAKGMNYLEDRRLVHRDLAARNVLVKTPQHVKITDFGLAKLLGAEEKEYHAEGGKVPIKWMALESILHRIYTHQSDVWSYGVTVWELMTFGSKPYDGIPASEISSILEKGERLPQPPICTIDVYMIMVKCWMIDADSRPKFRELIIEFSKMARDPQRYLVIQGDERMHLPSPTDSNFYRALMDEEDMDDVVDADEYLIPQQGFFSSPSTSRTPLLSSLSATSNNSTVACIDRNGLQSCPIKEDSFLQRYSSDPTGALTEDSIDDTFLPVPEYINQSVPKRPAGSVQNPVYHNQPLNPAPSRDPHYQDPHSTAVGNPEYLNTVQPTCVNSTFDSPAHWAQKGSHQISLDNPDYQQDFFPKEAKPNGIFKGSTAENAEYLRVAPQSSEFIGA
Mitogen-activated protein kinase kinase kinase 8 (Homo sapiens), sequence (P41279 whole entry): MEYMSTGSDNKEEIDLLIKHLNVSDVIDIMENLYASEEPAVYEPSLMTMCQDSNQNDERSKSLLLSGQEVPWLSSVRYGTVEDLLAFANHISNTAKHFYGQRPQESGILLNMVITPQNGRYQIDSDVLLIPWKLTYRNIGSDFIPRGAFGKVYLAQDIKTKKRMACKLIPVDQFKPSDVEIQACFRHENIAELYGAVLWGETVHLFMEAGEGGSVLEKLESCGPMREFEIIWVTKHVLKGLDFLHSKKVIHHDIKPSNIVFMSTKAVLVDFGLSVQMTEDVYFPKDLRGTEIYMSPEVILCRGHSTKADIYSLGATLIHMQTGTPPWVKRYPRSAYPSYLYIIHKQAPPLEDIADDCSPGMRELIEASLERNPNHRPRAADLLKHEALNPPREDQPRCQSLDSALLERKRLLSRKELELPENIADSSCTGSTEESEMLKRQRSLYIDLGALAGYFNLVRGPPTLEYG
Homeodomain-interacting protein kinase 1 (Homo sapiens), sequence (Q86Z02 whole entry, looked up): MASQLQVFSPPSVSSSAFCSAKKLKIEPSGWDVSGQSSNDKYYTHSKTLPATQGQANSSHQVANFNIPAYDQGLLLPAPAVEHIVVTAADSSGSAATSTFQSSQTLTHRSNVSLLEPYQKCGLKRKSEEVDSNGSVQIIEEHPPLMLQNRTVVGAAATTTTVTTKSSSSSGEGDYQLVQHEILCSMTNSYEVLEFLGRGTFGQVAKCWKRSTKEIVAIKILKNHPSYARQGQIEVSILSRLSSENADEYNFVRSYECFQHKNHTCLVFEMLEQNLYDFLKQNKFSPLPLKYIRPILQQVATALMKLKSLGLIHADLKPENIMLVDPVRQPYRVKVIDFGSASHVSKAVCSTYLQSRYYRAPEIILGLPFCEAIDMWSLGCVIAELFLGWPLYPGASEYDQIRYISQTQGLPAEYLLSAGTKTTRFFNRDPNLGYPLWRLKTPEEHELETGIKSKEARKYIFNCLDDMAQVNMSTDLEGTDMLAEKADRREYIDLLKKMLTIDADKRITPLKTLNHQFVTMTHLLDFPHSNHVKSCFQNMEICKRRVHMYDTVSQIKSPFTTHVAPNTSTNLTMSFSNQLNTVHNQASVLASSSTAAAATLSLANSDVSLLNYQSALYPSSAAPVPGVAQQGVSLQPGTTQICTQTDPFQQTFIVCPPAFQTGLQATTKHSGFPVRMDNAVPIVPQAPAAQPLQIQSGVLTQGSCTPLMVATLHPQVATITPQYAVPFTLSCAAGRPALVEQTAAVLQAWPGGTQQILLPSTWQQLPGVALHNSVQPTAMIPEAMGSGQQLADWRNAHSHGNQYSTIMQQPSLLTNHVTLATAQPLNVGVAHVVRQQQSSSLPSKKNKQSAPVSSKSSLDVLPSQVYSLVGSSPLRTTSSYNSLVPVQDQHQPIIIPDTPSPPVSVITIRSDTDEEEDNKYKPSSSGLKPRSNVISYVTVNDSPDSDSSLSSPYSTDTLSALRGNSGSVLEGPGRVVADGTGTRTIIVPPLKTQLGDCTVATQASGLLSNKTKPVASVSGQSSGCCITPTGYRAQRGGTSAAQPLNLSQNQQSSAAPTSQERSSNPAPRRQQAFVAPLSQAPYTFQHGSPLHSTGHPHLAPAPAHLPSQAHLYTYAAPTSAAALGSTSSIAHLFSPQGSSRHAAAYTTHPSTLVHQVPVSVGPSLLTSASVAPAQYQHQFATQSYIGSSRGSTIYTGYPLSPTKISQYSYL
SRSF protein kinase 1 (Homo sapiens), sequence (Q96SB4 whole entry): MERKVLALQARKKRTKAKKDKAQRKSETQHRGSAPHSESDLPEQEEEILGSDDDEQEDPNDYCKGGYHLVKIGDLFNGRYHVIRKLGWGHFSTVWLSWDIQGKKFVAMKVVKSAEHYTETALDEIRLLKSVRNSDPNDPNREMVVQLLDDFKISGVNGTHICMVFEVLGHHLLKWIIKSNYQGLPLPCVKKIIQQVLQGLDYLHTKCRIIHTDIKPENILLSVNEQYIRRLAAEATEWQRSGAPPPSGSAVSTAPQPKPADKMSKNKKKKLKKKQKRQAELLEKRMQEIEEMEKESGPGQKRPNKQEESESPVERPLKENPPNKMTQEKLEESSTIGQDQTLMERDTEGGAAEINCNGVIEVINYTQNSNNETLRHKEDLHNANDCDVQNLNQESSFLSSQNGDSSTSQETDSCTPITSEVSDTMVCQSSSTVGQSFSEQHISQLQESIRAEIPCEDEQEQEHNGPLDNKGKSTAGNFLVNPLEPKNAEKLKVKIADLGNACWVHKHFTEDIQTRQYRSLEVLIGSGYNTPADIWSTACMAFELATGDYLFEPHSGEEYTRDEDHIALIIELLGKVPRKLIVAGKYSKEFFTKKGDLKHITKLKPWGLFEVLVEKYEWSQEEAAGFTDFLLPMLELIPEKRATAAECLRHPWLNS
RAC-alpha serine/threonine-protein kinase (Homo sapiens), sequence (P31749 whole entry): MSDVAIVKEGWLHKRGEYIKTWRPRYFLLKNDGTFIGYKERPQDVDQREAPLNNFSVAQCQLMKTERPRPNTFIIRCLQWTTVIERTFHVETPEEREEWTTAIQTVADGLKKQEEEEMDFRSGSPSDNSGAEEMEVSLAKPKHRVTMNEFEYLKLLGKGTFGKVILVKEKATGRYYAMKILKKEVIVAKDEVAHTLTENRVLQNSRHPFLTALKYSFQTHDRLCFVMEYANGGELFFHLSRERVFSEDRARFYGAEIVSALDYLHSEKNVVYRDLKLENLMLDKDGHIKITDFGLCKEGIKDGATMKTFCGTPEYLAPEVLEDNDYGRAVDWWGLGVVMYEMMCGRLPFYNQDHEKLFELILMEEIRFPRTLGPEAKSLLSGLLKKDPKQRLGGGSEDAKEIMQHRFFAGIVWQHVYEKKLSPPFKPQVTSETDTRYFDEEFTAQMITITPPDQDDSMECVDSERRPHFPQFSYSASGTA
Serine/threonine-protein kinase pim-2 (Homo sapiens), sequence (Q9P1W9 whole entry, looked up): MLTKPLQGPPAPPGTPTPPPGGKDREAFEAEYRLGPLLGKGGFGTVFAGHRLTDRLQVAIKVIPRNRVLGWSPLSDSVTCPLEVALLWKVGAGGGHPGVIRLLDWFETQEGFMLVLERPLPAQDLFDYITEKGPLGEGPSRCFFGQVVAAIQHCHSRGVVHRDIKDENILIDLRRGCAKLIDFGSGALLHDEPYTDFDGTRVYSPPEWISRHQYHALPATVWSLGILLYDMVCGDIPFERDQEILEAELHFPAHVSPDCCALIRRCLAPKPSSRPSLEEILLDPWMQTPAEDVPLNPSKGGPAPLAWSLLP

## COc1cc(N2CCC(N3CCN(C)CC3)CC2)ccc1Nc1ncc(Cl)c(Nc2ccccc2P(C)(C)=O)n1 [BRIGATINIB]
[1]
  TGI: 87%
[2]
  IC90: 2.46 µM
[3]
  inhibition: < 90%
[4]
  inhibition: < 90%
[5]
  pIC50: 8.36
[6]
  inhibition: < 90%
[7]
  inhibition: < 90%
[8]
  inhibition: < 90%
[9]
  IC90: 0.109 µM
[10]
  inhibition: < 90%
[11]
  inhibition: < 90%
[12]
  inhibition: < 90%
[13]
  inhibition: < 90%
[14]
  inhibition: < 90%
[15]
  inhibition: < 90%
[16]
  inhibition: < 90%
[17]
  inhibition: < 90%
[18]
  inhibition: < 90%
[19]
  inhibition: < 90%
[20]
  inhibition: < 90%
[21]
  inhibition: < 90%
[22]
  inhibition: < 90%
[23]
  inhibition: < 90%
[24]
  inhibition: < 90%
[25]
  inhibition: < 90%
[26]
  inhibition: < 90%
[27]
  inhibition: < 90%
